According to patent US20230272460A1, “Method for Targeted Nucleic Acid Cleavage” (Cambridge Enterprise Limited, priority 2020, published 2023):

System: 18S and BRD4 transcripts in MOLM13 cells
Experiment: Cellular RNA degradation reactions (acCLICK-Seq), RT-qPCR
Assay type: cell-based, human
Procedure: MOLM13 cells were suspended RPMI-1640 media (Gibco) supplemented with 10% v/v FBS and 1% v/v penicillin/streptomycin/L-glutamine at a density of 1,000,000 cells mL^-1. The cells were incubated for 30 min at 37° C. followed by addition of ethyl-3-butynoate at a final concentration of 200 μM. Treated cells were incubated for further 24 h at 37° C. […] Levels of specific RNAs were measured using fast mode of QuantStudio 3 Real-Time PCR System (Applied Biosystems) and PowerUpTM SYBR Green Master Mix (Applied Biosystems) according to the manufacturer's instructions. In the qPCR analysis RNA levels were normalised to the 5S gene ([…]) or the GAPDH gene (glycoCLICK-seq). These housekeeping gene was chosen as their levels fluctuated the least under various conditions tested.

C#CCC(=O)OCC [ethyl-3-butynoate, Ethyl-3-butynoate]
relative expression levels of 18S and BRD4 transcripts, clicked versus non-clicked control cells (WT MOLM13, ethyl-3-butynoate 200 μM 24 h, then click-degrader 1 400 μM CuAAC): reduction
expression levels of 18S and BRD4 transcripts in clicked cells (cells with NAT10 knocked-out): rescued
